Source: patent publication US20240092779A1, “USP1 INHIBITORS AND USES THEREOF” (Zentaur Therapeutics USA Inc., priority 2022, published 2024)
Values after ≈ are worked out from the molar mass of the structure shown.

Tests used:
[1] = Solubility in FaSSIF (Fasted State Simulated Intestinal Fluid); assay type: physicochemical; details: kinetic from dmso stock, FaSSIF pH 6.5, 25° C.
Summary of the method: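 Apparent solubility measured in FaSSIF at pH 6.5 from a 10 mM DMSO stock, shaken at 25° C, 1100 RPM for 2 h and then filtered. Filtrate quantified by LC/MS/MS against a 3 μM standard with internal standard, corrected by dilution factor.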

HCC1806 Ub-PCNA (USP1) = test: USP1 Western Blot Protocol (HCC1806 Ub-PCNA); assay type: cell-based; details: Homo sapiens, HCC1806 cells, 4 hours
Summary of the method: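 HCC1806 cells seeded overnight, then treated 4 h at 37 °C with a 5-point, 4-fold dilution series (0.1% DMSO). Lysates immunoblotted for Ub-PCNA with fluorescent detection; inhibition expressed as % vehicle from Ub-PCNA upregulation, IC50 by four-parameter logistic fit.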

Row | solubility at 2 h [1] [µM] | IC50 (HCC1806 Ub-PCNA (USP1)) [nM] | Compound
1 | < 10 | 10 to 100 | COc1ncnc(C2CC2)c1-c1ncc2ccc(=O)n(Cc3ccc(-c4nc(C(F)(F)F)cn4C(C)C)cc3)c2c1F [Compound I-27, 7-(4-cyclopropyl-6-methoxypyrimidin-5-yl)-8-fluoro-1-({4-[1-isopropyl-4-(trifluoromethyl)imidazol-2-yl]phenyl}methyl)-1,6-naphthyridin-2-one]
2 | < 10 | 10 to 100 | COc1ncnc(C2CC2)c1-c1ncc2ccc(=O)n(Cc3ccc(-c4cccc(C(F)(F)F)n4)cc3)c2n1 [Compound I-36, 2-(4-cyclopropyl-6-methoxypyrimidin-5-yl)-8-({4-[6-(trifluoromethyl)pyridin-2-yl]phenyl}methyl)pyrido[2,3-d]pyrimidin-7-one]
3 | ≥ 100 | < 10 | COc1ncnc(C2CC2)c1-c1nc(C)c2cc(-c3cnn(C)c3)c(=O)n(Cc3ccc(-c4nc(C(F)(F)F)cn4C4CC4)cc3)c2n1 [Compound I-148, 8-({4-[1-Cyclopropyl-4-(Trifluoromethyl)Imidazol-2-Yl]Phenyl}Methyl)-2-(4-Cyclopropyl-6-Methoxypyrimidin-5-Yl)-4-Methyl-6-(1-Methylpyrazol-4-Yl)Pyrido[2,3-d]Pyrimidin-7-One]
4 | 10 to 100 (≈ 6.41 to 64.1 µg/mL) | < 10 | COc1ncnc(C2CC2)c1-c1ncc2cc(-c3cn(C)nn3)c(=O)n(Cc3ccc(-c4nc(C(F)(F)F)cn4C4CC4)cc3)c2n1 [Compound I-150]
5 | 10 to 100 (≈ 6.41 to 64.1 µg/mL) | < 10 | COc1ncnc(C2CC2)c1-c1ncc2cc(-c3cnn(C)n3)c(=O)n(Cc3ccc(-c4nc(C(F)(F)F)cn4C4CC4)cc3)c2n1 [Compound I-151]
6 | ≥ 100 | < 10 | COc1cc(Cn2c(=O)ccc3c(C)nc(-c4c(OC)ncnc4C4CC4)nc32)ccc1-c1nc(C(F)(F)F)cn1C1CC1 [Compound I-152, 8-({4-[1-cyclopropyl-4-(trifluoromethyl)imidazo]-2-yl]-3-methoxyphenylmethyl)-2-(4-cyclopropyl-6-methoxypyrimidin-5-yl)-4-methylpyrido[2,3-d]pyrimidin-7-one]
7 | ≥ 100 | < 10 | COc1ncnc(C2CC2)c1-c1ncc2cc(-c3ncn(C)n3)c(=O)n(Cc3ccc(-c4nc(C(F)(F)F)cn4C4CC4)cc3)c2n1 [Compound I-153, 8-({4-[1-cyclopropyl-4-(trifluoromethyl)imidazo]-2-yl]phenylmethyl)-2-(4-cyclopropyl-6-methoxypyrimidin-5-yl)-6-(1-methyl-1,2,4-triazol-3-yl)pyrido[2,3-d]pyrimidin-7-one]
8 | 10 to 100 (≈ 6.55 to 65.5 µg/mL) | < 10 | COc1ncnc(C2CC2)c1-c1ncc2cc(-c3c(C)noc3C)c(=O)n(Cc3ccc(-c4nc(C(F)(F)F)cn4C4CC4)cc3)c2n1 [Compound I-155]
9 | ≥ 100 | 10 to 100 | COc1ncnc(C2CC2)c1-c1ncc2cc(-c3ncnn3C)c(=O)n(Cc3ccc(-c4nc(C(F)(F)F)cn4C4CC4)cc3)c2n1 [Compound I-156]
10 | ≥ 100 | < 10 | COc1ncnc(C2CC2)c1-c1nc(C)c2cc(C3CCN(C)CC3)c(=O)n(Cc3ccc(-c4nc(C(F)(F)F)cn4C4CC4)cc3)c2n1 [Compound I-157, 8-({4-[1-Cyclopropyl-4-(Trifluoromethyl)Imidazol-2-Yl]Phenyl}Methyl)-2-(4-Cyclopropyl-6-Methoxypyrimidin-5-Yl)-4-Methyl-6-(1-Methylpiperidin-4-Yl)Pyrido[2,3-d]Pyrimidin-7-One]
11 | 10 to 100 (≈ 6.22 to 62.2 µg/mL) | < 10 | COc1cc(Cn2c(=O)ccc3c(C)nc(-c4c(OC)ncnc4C4CC4)nc32)cc(F)c1-c1nc(C(F)(F)F)cn1C1CC1 [Compound I-163]
12 | 10 to 100 (≈ 6.55 to 65.5 µg/mL) | 10 to 100 | COc1ncnc(C2CC2)c1-c1nc(C)c2cc(-c3ncnn3C)c(=O)n(Cc3ccc(-c4nc(C(F)(F)F)cn4C4CC4)cc3)c2n1 [Compound I-167, 8-({4-[1-Cyclopropyl-4-(Trifluoromethyl)Imidazol-2-Yl]Phenyl}Methyl)-2-(4-Cyclopropyl-6-Methoxypyrimidin-5-Yl)-4-Methyl-6-(2-Methyl-1,2,4-Triazol-3-Yl)Pyrido[2,3-d]Pyrimidin-7-One]
13 | 10 to 100 (≈ 6.43 to 64.3 µg/mL) | < 10 | COc1ncnc(C2CC2)c1-c1ncc2cc(-c3ncnn3C)c(=O)n(Cc3ccc(-c4nc(C(F)(F)F)cn4C(C)C)cc3)c2n1 [Compound I-168, 2-(4-Cyclopropyl-6-Methoxypyrimidin-5-Yl)-8-({4-[1-Isopropyl-4-(Trifluoromethyl)Imidazol-2-Yl]Phenyl}Methyl)-6-(2-Methyl-1,2,4-Triazol-3-Yl)Pyrido[2,3-d]Pyrimidin-7-One]
